# Experimental data taken from patent publication US20190105367A1, “ANTIMICROBIAL 4-OXOQUINOLIZINES” (Emergent Product Development Gaithersburg Inc., priority 2011, published 2019).
# Read-outs that look alike come from different tables or passages of the source.
# Experiments:
# [1] = system: A. baumannii J2; assay: Preliminary MBC without and with sub-inhibitory polymyxin B (Example 4); type: cell-based, Acinetobacter baumannii; conditions: Acinetobacter baumannii
# [2] = system: S. pneumoniae 49619; assay: MIC, panel of quinolone-resistant strains (Example 2); type: cell-based, Streptococcus pneumoniae
# [3] = Cytotoxicity (Example 7); type: cell-based; conditions: human, HEPG2 V1 cells
# Method: The 4-oxoquinolizine compounds of the invention preferably have a low cytotoxicity against human cells. […].
# Cytotoxicity was determined for the instant 4-oxoquinolizine compounds which show low cytotoxicity. (see Table 17 following). […]
# [4] = system: E. faecium 19434; assay: MIC, standard panel of Gram-positive and Gram-negative strains (Example 2); type: cell-based; conditions: Enterococcus faecium
# [5] = system: S. aureus SMITH; assay: MIC, panel of quinolone-resistant strains (Example 2); type: cell-based; conditions: Staphylococcus aureus, read-out: MIC S. aureus SMITH
# [6] = system: A. baumanii 19606; assay: MIC, standard panel of Gram-positive and Gram-negative strains (Example 2); type: cell-based; conditions: Acinetobacter baumannii
# [7] = system: E. cloacae 13047; assay: as above; type: cell-based, Enterobacter cloacae
# [8] = system: A. baumannii A329; assay: MIC without and with sub-inhibitory polymyxin B (Example 4); type: cell-based, Acinetobacter baumannii; conditions: +0.06 μg/ml PB, 2nd experiment; for MIC without PB/MIC + PB: A. baumannii A329; for MIC: Acinetobacter baumannii, A329, A. baumannii A329, read-out: MIC
# [9] = system: E. faecalis 29212; assay: MIC, standard panel of Gram-positive and Gram-negative strains (Example 2); type: cell-based, Enterococcus faecalis
# [10] = system: Acinetobacter sp. (H064200250); assay: Preliminary MBC without and with sub-inhibitory polymyxin B (Example 4); type: cell-based; conditions: Acinetobacter
# Method: The plates were incubated for 18-20 hours at 37° C. The MBC was read as the lowest concentration at which colony growth was ca. 90% less than the positive control (i.e. usually where single colonies or no colonies were observed).
# [11] = system: S. epidermis 12228; assay: MIC, standard panel of Gram-positive and Gram-negative strains (Example 2); type: cell-based, Staphylococcus epidermis; conditions: Staphylococcus
# [12] = system: S. aureus 101; assay: as above; type: cell-based; conditions: Staphylococcus aureus
# [13] = system: A. baumannii A489; assay: Preliminary MBC without and with sub-inhibitory polymyxin B (Example 4); type: cell-based, Acinetobacter baumannii; conditions: Acinetobacter baumannii, preliminary MBC
# [14] = system: S. aureus 25923 HS; assay: MIC, standard panel of Gram-positive and Gram-negative strains (Example 2); type: cell-based; conditions: Staphylococcus aureus, read-out: MIC S. aureus 25923 HS
# [15] = system: S. aureus 25923; assay: as above; type: cell-based; conditions: Staphylococcus aureus
# [16] = system: B. thailandensis; type: cell-based, Burkholderia thailandensis; conditions: pH 7 vs pH 5
# [17] = system: GN48 Klebsiella pneumoniae NCTC 13443 NDM-1-β-lactamase producing isolate; assay: Chequerboard synergy with polymyxin B, FICI (Example 6); type: cell-based
# In short: (§1)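 Broth microdilution chequerboard per CLSI in cation-adjusted Mueller-Hinton broth II; doubling dilutions spanning ≥2 above to 4 below each agent's MIC, polymyxin B fixed at 0.008–8 mg/L (0.004–4 mg/L for GN31). FICI summed from each agent's combination MIC over its MIC alone.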
# [18] = system: GN56 Acinetobacter baumannii levofloxacin resistant clinical isolate; assay: as above; type: cell-based
# In short: as §1
# [19] = system: GN52 Acinetobacter baumannii levofloxacin resistant clinical isolate; assay: as above; type: cell-based
# In short: as §1
# [20] = J2, A. baumannii J2, +[…] PB, preliminary MBC, 2nd experiment, read-out: MBC
# [21] = J2, read-out: MBC +[…] PB, A. baumannii J2, +[…] polymyxin B, preliminary MBC, 1st experiment
# [22] = Streptococcus pneumoniae, 49619, LEV S, read-out: MIC S. pneumoniae 49619
# [23] = Enterobacter cloacae, 13047; read-out: MIC E. cloacae 13047
# [24] = Enterococcus faecalis, 29212; read-out: MIC E. faecalis 29212
# [25] = Acinetobacter spp. H064200250 (OXA51), +[…] PB, preliminary MBC, 2nd experiment, read-out: MBC
# [26] = read-out: MBC +[…] PB, Acinetobacter spp. H064200250, +[…] polymyxin B, preliminary MBC, 1st experiment
# [27] = A489, A. baumannii A489, +[…] PB, 2nd experiment, read-out: MBC
# [28] = A489, read-out: MBC +[…] PB, A. baumannii A489, +[…] polymyxin B, 1st experiment
# [29] = Streptococcus pneumoniae, 49619, read-out: MIC S. pneumoniae 49619
# [30] = Enterococcus faecalis, 29212, read-out: MIC E. faecalis 29212
# [31] = in combination with polymyxin B
# [32] = polymyxin B with the named antibiotic
smiles,measurement,setting,value
"Cc1c(-c2cc(Cl)c(N)c(Cl)c2)ccn2c(=O)c(C(=O)O)cc(C3CC3)c12 [Compound 3, 8-(3,5-dichloro-4-amino-phenyl)-1-cyclopropyl-9-methyl-4-oxo-quinolizine-3-carboxylic acid]",MBC,[1]; [20],≤ 0.03 µg/mL
same,MBC,[1]; [21],0.125 µg/mL
same,MIC,[2]; [22],0.5 µg/mL
same,IC50,[3],50 µM
same,MIC,[4],0.5 µg/mL
same,MIC,[5]; CIP R,0.5 µg/mL
same,MIC,[6],0.25 µg/mL
same,MIC,[7]; [23],0.5 µg/mL
same,MIC without PB/MIC + PB,[8],32
same,MIC,[9]; [24],0.016 µg/mL
same,MBC,[10]; [25],0.06 µg/mL
same,MBC,[10]; [26],0.5 µg/mL
same,MIC,[11],0.008 µg/mL
same,MIC,[12],0.06 µg/mL
same,MBC,[13]; [27],≤ 0.03 µg/mL
same,MBC,[13]; [28],0.06 µg/mL
"Cc1c(-c2ccc(N)cc2)ccn2c(=O)c(C(=O)O)cc(C3CC3)c12 [Compound 8, 8-(4-amino-phenyl)-1-cyclopropyl-9-methyl-4-oxo-quinolizine-3-carboxylic acid]",MBC,[1]; [20],≤ 0.03 µg/mL
same,MBC,[1]; [21],0.125 µg/mL
same,IC50,[3],90 µM
same,MIC,[4],0.5 µg/mL
same,MIC,[6],0.125 µg/mL
same,MIC,[7]; [23],0.25 µg/mL
same,MIC without PB/MIC + PB,[8],4
same,MIC,[8],2 µg/mL
same,MIC,[9]; [24],0.03 µg/mL
same,MIC,[14],0.25 µg/mL
same,MBC,[10]; [25],0.125 µg/mL
same,MBC,[10]; [26],0.5 µg/mL
same,MIC,[12],0.5 µg/mL
same,MBC,[13]; [27],≤ 0.03 µg/mL
same,MBC,[13]; [28],≤ 0.03 µg/mL
"Cc1c(-c2ccc(CN)cc2)ccn2c(=O)c(C(=O)O)cc(C3CC3)c12 [Compound 5, 8-(4-aminomethyl-phenyl)-1-cyclopropyl-9-methyl-4-oxo-quinolizine-3-carboxylic acid]",MIC,[15],0.03 µg/mL
same,MBC,[1]; [21],0.5 µg/mL
same,MIC,[2]; [29],0.125 µg/mL
same,MIC,[5],0.125 µg/mL
same,MIC,[6],0.25 µg/mL
same,MIC,[7]; [23],0.06 µg/mL
same,MIC without PB/MIC + PB,[8],1
same,MIC,[9]; [30],0.125 µg/mL
same,MIC,[14],0.125 µg/mL
same,MBC,[10],4 µg/mL
same,MBC,[10]; [26],1 µg/mL
same,MIC,[11],0.06 µg/mL
same,MBC,[13]; [27],0.5 µg/mL
same,MBC,[13]; [28],1 µg/mL
"Cc1c(-c2ccc(CN)cc2)c(F)cn2c(=O)c(C(=O)O)cc(C3CC3)c12 [Compound 6, 8-(4-aminomethyl-phenyl)-1-cyclopropyl-7-fluoro-9-methyl-4-oxo-quinolizine-3-carboxylic acid]",MIC,[15],0.03 µg/mL
same,MBC,[1]; J2,0.25 µg/mL
same,MBC,[1]; [21],1 µg/mL
same,MIC,[2]; [29],0.125 µg/mL
same,Dilutions improvement shift on B. thailandensis MIC90 (between pH 7 and pH 5),[16],No
same,MIC,[5],0.125 µg/mL
same,MIC,[6],0.5 µg/mL
same,MIC,"[7]; Enterobacter cloacae, 13047, read-out: MIC E. cloacae 13047",0.125 µg/mL
same,MIC without PB/MIC + PB,[8],2
same,MIC,[8],8 µg/mL
same,MIC,[9]; [30],0.125 µg/mL
same,MIC,[14],0.25 µg/mL
same,MBC,[10],1 µg/mL
same,MBC,[10]; [26],4 µg/mL
same,MIC,[11],0.03 µg/mL
same,MBC,[13]; [27],0.5 µg/mL
same,MBC,[13]; [28],1 µg/mL
"Cc1c(-c2cc(F)c(N)cc2F)ccn2c(=O)c(C(=O)O)cc(C3CC3)c12 [Compound 2, 8-(4-amino-2,5-difluorophenyl)-1-cyclopropyl-9-methyl-4-oxo-4H-quinolizine-3-carboxylic acid]",MBC,[1]; [20],≤ 0.03 µg/mL
same,MBC,[1]; [21],≤ 0.03 µg/mL
same,Combination drug MIC alone,[17],32 µg/mL
same,FICx,[17],0.13
same,FICy,[17],0.50
same,FICI,[17]; combination with polymyxin B,0.63
same,Synergy,[17]; combination with polymyxin B,Partial synergy (partial synergy/addition (FICI 0.51 to 0.75))
same,Synergy,"[17]; combination with polymyxin B, listed as compound 2",partial synergy
same,Combination drug concentration in combination,[17]; [31],4 mg/L
same,Polymyxin B MIC in combination,[17]; [32],0.25 µg/mL
same,Combination drug MIC alone,[18],16 µg/mL
same,FICx,[18],0.06
same,FICy,[18],0.50
same,FICI,[18]; combination with polymyxin B,0.56
same,Synergy,[18]; combination with polymyxin B,Partial synergy (partial synergy/addition (FICI 0.51 to 0.75))
same,Combination drug concentration in combination,[18]; [31],1 mg/L
same,Polymyxin B MIC in combination,[18]; [32],0.25 µg/mL
same,Combination drug MIC alone,[19],4 µg/mL
same,FICx,[19],0.25
same,FICy,[19],0.24
same,FICI,[19]; combination with polymyxin B,0.49
same,Synergy,[19]; combination with polymyxin B,Synergy (Synergy (FICI <0.5))
same,Combination drug concentration in combination,[19]; [31],1 mg/L
same,Polymyxin B MIC in combination,[19]; [32],0.12 µg/mL
same,IC50,[3],250 µM
same,MIC,[4],0.5 µg/mL
same,MIC,[6],0.06 µg/mL
same,MIC,[7]; [23],0.25 µg/mL
same,MIC without PB/MIC + PB,[8],16
same,MIC,[14],0.125 µg/mL
same,MBC,[10]; [25],0.06 µg/mL
same,MBC,[10]; [26],≤ 0.03 µg/mL
same,MIC,[12],0.125 µg/mL
same,MBC,[13]; [27],≤ 0.03 µg/mL
same,MBC,[13]; [28],≤ 0.03 µg/mL
"Cc1c(-c2ccc(CN)c(F)c2)ccn2c(=O)c(C(=O)O)cc(C3CC3)c12 [Compound 4, 8-(3-fluoro-4-aminomethyl-phenyl)-1-cyclopropyl-9-methyl-4-oxo-quinolizine-3-carboxylic acid]",MIC,[15],0.06 µg/mL
same,MBC,[1]; [20],0.06 µg/mL
same,MBC,[1]; [21],1 µg/mL
same,MIC,[2]; [22],0.125 µg/mL
same,IC50,[3],60 µM
same,MIC,[5]; CIP R,0.125 µg/mL
same,MIC,[6],0.25 µg/mL
same,MIC,[7]; [23],0.06 µg/mL
same,MIC without PB/MIC + PB,[8],2
same,MIC,[8],8 µg/mL
same,MIC,[9]; [24],0.125 µg/mL
same,MIC,[14],0.125 µg/mL
same,MBC,[10]; [25],0.5 µg/mL
same,MBC,[10]; [26],8 µg/mL
same,MIC,[11],0.06 µg/mL
same,MBC,[13]; [27],0.06 µg/mL
same,MBC,[13]; [28],1 µg/mL
